This data set can be described thus: Human HepG2 cell viability assay in 384 well format. The class given is toxicity, cell-based. Details: dose 125 nL, time 70.5 hour; concentration not given beside the values. The note with it: HepG2 cells, read-out: Inhibition.

This passage reports cytotoxicity results from ChEMBL document CHEMBL3507680, “University of Dundee, Gates Library screen for HepG2 cell viability”.

Each structure is given as a SMILES string.

With `CC1=C(CCN2CC[C@@H](N3CCC(O)CC3)[C@H](O)C2)C(C)(C)CCC1`, the cytotoxicity at 70.5 h is -5.02%.
With `Cc1ccc(C)c(NC(=O)N2C[C@H](N(C)C)C[C@H]2CO)c1`, the cytotoxicity at 70.5 h was -6.76%.
To `COC[C@]1(O)CCN(c2cc(C3CC3)ncn2)CC1(C)C` belongs -10.5%; to `CCc1nc(C)c(C(=O)N(C)Cc2cnc3ccccn23)o1`, -7.82%.
Take `COc1ccc(CCC(=O)N2CCNCC2C(=O)N2CCCC2)cc1` (configuration not stated): the cytotoxicity at 70.5 h was -6.16%.
To `CCCc1cc(NCCN2CCNC2=O)n2nccc2n1` belongs -11.5%.
To `CC1CCN(S(=O)(=O)N2CCc3c(c(C(=O)O)nn3CC3CC3)C2)CC1` belongs 1.09%; to `CCc1nnsc1C(=O)NCCC1CN(C(C)C)CCO1` (configuration not stated), -7.17%.
The same measure for `COC(=O)C1CCCCN1C(=O)c1cn(C/C=C/c2ccccc2)nn1` (configuration not stated): 23.4%; for `NCCO[C@H]1C[C@@H](O)C12CCN(C1Cc3ccccc3C1)CC2`: 34.2%; for `COc1ccccc1[C@@H]1CN(Cc2cnc(N(C)C)nc2)C[C@H]1C(=O)O`: -6.22%.
Turning to `Cc1ccc2oc(=O)n(CCC(=O)N3CCCC4(CNC(=O)O4)C3)c2c1` (configuration not stated), the cytotoxicity at 70.5 h was -1.82%.
The same measure for `CCCN1CCCC2(CCN(C(=O)CCCn3cncn3)C2)C1=O` (configuration not stated): -4.88%; for `CCn1ccnc1CN(C)c1cc(C2CCCNC2)nc(C)n1` (configuration not stated): -1.8%; for `COC[C@@]12CC[C@@H](N3CCOCC3)C[C@H]1CCN(c1nc(CO)cs1)C2`: 10.8%.
The same measure for `CCOCc1nc2c(c(N3CC=CC3)n1)CCN(Cc1ccco1)CC2`: -3.14%.
With `COc1cnc(N2C[C@@H](CN3CCOCC3)C[C@H](CO)C2)nc1`, the cytotoxicity at 70.5 h was -2.56%.
To `CC(C)Oc1ccc(CN2CCC(Cc3nnc(CO)n3C)CC2)cc1` belongs -0.794%.
As to `Cn1c(CN2CCC(O)CC2)nnc1C1CCCN(c2ccncc2)C1` (configuration not stated), the cytotoxicity at 70.5 h was -9.58%.
In the case of `COc1ccc(C(C(=O)O)N(C)Cc2ccon2)cc1Cl` (configuration not stated), the cytotoxicity at 70.5 h is -4.56%.
To `CCC[C@H]1CN(S(=O)(=O)c2ccc(-c3c(C)noc3C)s2)C[C@@H]1N` belongs -4.66%; to `O=C(CCCn1ccnc1)N[C@H]1CN(C2CCCC2)C[C@@H]1C1CC1`, -11.7%; to `COCc1c(C(=O)N2CCCC(N(C)Cc3ccccc3)C2)noc1C` (configuration not stated), -3.62%.
In the case of `Cc1cc(C)n(Cc2cc(C(=O)N3CCCC3c3nccs3)n[nH]2)n1` (configuration not stated), the cytotoxicity at 70.5 h is -13.2%.
The same measure for `Cn1ncc(N2CCC(CNC3Cc4ccccc4C3)C2)cc1=O` (configuration not stated): 3.7%; for `COc1ccccc1OC1CCN(C(=O)c2cnc(C)cc2C)CC1`: -5%.
The same measure for `O=C1CCOCCN1Cc1ccc(Cl)c(F)c1`: 23.1%; for `COCc1cc(NCc2ccccc2-n2cncn2)ncn1`: -10.8%.
To `COCc1ncc(CN2CCC3(CCNC(=O)CC3)CC2)cn1` belongs -5.72%; to `CCOC(=O)CC(C)Nc1nc(C(C)(C)C)nc2c1cnn2C` (configuration not stated), 22.1%.
`CCCn1ncc(-c2ccnc(NC3CCCc4ccccc43)n2)c1C` (configuration not stated): the cytotoxicity at 70.5 h came to 55.9%.
Turning to `O=C1NCCN(Cc2ccoc2)C1CC(=O)N1CCc2sccc2C1` (configuration not stated), the cytotoxicity at 70.5 h was -0.766%.
As for `CCCS(=O)(=O)N1CCC2(CCC(=O)N(CCc3cccnc3)C2)CC1`, the cytotoxicity at 70.5 h is -10.9%.
To `CCc1nc(C)c([C@H]2CN(C)C[C@@H]2C(=O)NCc2ccccn2)[nH]1` belongs -2.64%; to `COc1ccc(-n2cccn2)c(CN2CCC3(CCCNC3)C2)c1` (configuration not stated), -7.03%.
Regarding `Cc1cc(Cn2cc(C(C)Cc3ccc4c(c3)OCO4)nn2)n[nH]1` (configuration not stated), the cytotoxicity at 70.5 h was -7.62%.
The same measure for `COc1nc2c(cc1C(=O)N1CCCCC1c1ccccn1)CCC2` (configuration not stated): -6.36%; for `Cc1cc(NCc2nnc3n2CCC3)n2nc(C)c(C)c2n1`: -12.3%.
To `O=C(NCCN1CCOC1=O)c1cnc(-c2cccnc2)nc1` belongs -3.86%; to `CC1=C(C(=O)N(C)Cc2noc3c2CCCC3)C(C)NC(=O)N1` (configuration not stated), -0.0225%; to `c1cc(-c2cscn2)cc(N2CCC(NCCc3cccs3)CC2)c1`, 0.55%.
The same measure for `COc1cc(F)c(-n2cnc(CCNC(C)=O)c2)cc1F`: -10.8%; for `O=C1CN(Cc2cn(CC3CCN(C4CCSCC4)CC3)nn2)CCN1`: 20.3%; for `CCC1CN(Cc2nnc(C3CC3)o2)CCC(=O)N1Cc1ccccc1` (configuration not stated): 20.4%.
Take `Cc1ccc(CN(CCN(C)C)Cc2nc3ccccc3[nH]2)s1`: the cytotoxicity at 70.5 h came out at 11.2%.
The same measure for `COCCC1(CO)CCCN(Cc2ccc(C#N)cc2)C1` (configuration not stated): -1.95%; for `CSCCCN1C[C@H](NC(=O)c2ccc(C#N)nc2)[C@@H](C2CC2)C1`: -0.265%.
The same measure for `CCc1nc(NC(=O)NCCc2cscn2)nn1C`: -4.65%; for `NC(=O)c1ccc(-c2nc3c(c(=O)[nH]2)CCNC3)cc1`: -2.1%; for `Cc1noc(C)c1CN1C(=O)[C@H]2CC[C@@H]1CN(Cc1cscn1)C2`: -6.64%.
The same measure for `O=C(NCc1cc2n(n1)CCCN(Cc1ccc(Cl)s1)C2)C1CCC1`: -10.1%; for `CC(C)c1cc(C2CCCN2C(=O)CN2C(=O)OC(C)(C)C2=O)no1` (configuration not stated): -9.43%.
For the compound `c1ccc(CCCN2CCCN(c3ncnc4[nH]ccc34)CC2)cc1`, the cytotoxicity at 70.5 h is -15.3%.
To `O=S(=O)(NCc1ccccc1)N1CCCN(c2ccncc2)CC1` belongs 28.7%.
The same measure for `CCC(C)Oc1ccc(CNCCc2c[nH]cn2)cc1Cl` (configuration not stated): 24.1%.
To `Cc1nn(C)c2nc(N(CCOc3ccccc3)CC3CCCO3)sc12` (configuration not stated) belongs 21%; to `O=C(CCc1ccco1)N1CCc2[nH]nc(COc3ccccc3)c2C1`, 51.5%.
As for `CCc1ncc(C(=O)NCC2CCN(Cc3ccncc3)CC2)cn1`, the cytotoxicity at 70.5 h was -5.64%.
The same measure for `CN(C)c1ncnc2c1CCN(C(=O)CN1CCCCC1)C2`: -7.37%; for `CC(C)CNS(=O)(=O)c1ccc(C(=O)N(C)CCc2cn[nH]c2)cc1`: -8.39%; for `CN(CC1(CO)CCC1)C(=O)c1cc(COc2ccccc2F)[nH]n1`: -3.92%.
On to `CN(C)C(C(=O)N1CCN(S(N)(=O)=O)CC1)c1ccccc1F` (configuration not stated), for which the cytotoxicity at 70.5 h is -3.36%.
The same measure for `O=C1CCC2(CCNCC2)CN1CCCNc1cccnc1`: -0.123%.
In the case of `CCCn1cc(C(=O)NCCc2ccncc2)c(C)n1`, the cytotoxicity at 70.5 h was -6.81%.
To `COc1c(F)cc(CN2CCCC3(CC2)CNC(=O)O3)cc1Cl` (configuration not stated) belongs 5.1%; to `OCC(CO)N1CCC(c2nnc(Cn3ccnc3)n2C2CC2)CC1`, 12.4%; to `Cc1ccc(CN2CCN(c3ncnc4[nH]cnc34)CC2CCO)cc1` (configuration not stated), 4.25%.
To `Cc1noc(C)c1CN1CCCC1c1nc(-c2ccccc2)no1` (configuration not stated) belongs -2.38%.
As to `Cc1ccc(C)c2c(O)cc(CNCC(N)=O)nc12`, the cytotoxicity at 70.5 h is -0.585%.
The same measure for `c1cn(CC2CC2)c(C2CCN(CCC3CCOC3)CC2)n1` (configuration not stated): 21.7%.
The same measure for `CN(C(=O)c1cccnc1)C1CCCN(CCc2ccccc2)C1` (configuration not stated): -5.02%.
`CC(Oc1ccc2c(c1)OCO2)C(=O)N1CCC(N2CCOCC2)CC1` (configuration not stated): the cytotoxicity at 70.5 h was -2.72%.
The same measure for `Cc1ccccc1C(=O)NC[C@@H]1CCN(C(=O)c2cccn2C)C[C@H]1O`: -13%.
For the compound `CCn1ccc(C(=O)N2CCCN(Cc3ccccc3F)CC2)cc1=O`, the cytotoxicity at 70.5 h stood at 17.5%.
To `CCCn1ncc(C(=O)N(C)Cc2n[nH]c3c2CCC3)c1C` belongs -11.7%; to `CCC[C@H]1CN(Cc2cncn2C)C[C@@H]1NC(=O)C1(COC)CCC1`, -9.83%; to `O=C(Cc1cccnc1)N1C[C@H]2CC[C@@H]1CN(Cc1ccc(F)cc1)C2`, 9.62%.
To `COc1ccccc1OC1CCN(Cc2cccnc2)CC1` belongs -3.86%.
The same measure for `Cc1cc(C)c2c(C(=O)N(C)C)cc(-c3cnc(N)nc3)nc2c1`: -5.25%; for `CN(C)c1ccc(CN2C[C@H]3CC[C@@H]2CN(C2CCOCC2)C3)cn1`: -3.42%.
For `c1ccc(Cn2cccn2)c(CN2CCCCC2CCn2ccnc2)c1` (configuration not stated), the cytotoxicity at 70.5 h is 0.54%.
The same measure for `CC(C)(C)NC(=O)N1CCCn2nc(C(=O)Nc3ccccc3)cc2C1`: -12.5%; for `Cc1cc(C(=O)N2CC[C@@]3(O)CCN(C(=O)N4CCCC4)C[C@H]3C2)no1`: -4%.
The same measure for `COc1cccc(-c2noc(-c3ccc(N4CC(N)C4)nc3)n2)c1OC`: -0.582%.
In the case of `CN(C)CC1(O)CCCN(C(=O)Cn2ccc3ccccc32)CC1` (configuration not stated), the cytotoxicity at 70.5 h is 29.7%.
To `CCC(CO)N(C/C(C)=C/c1ccco1)Cc1ccco1` (configuration not stated) belongs -3.88%.
To `CN(C)CC1(O)CCCN(C(=O)c2ccccc2-n2cccn2)C1` (configuration not stated) belongs 17.7%; to `CCC(Nc1nccc(C2CCCC2)n1)c1ncccc1C` (configuration not stated), 14.1%; to `CCn1cc(CN2CCC(CNC(C)=O)CC2)cc1C#N`, 0.676%.
The same measure for `CC(C)N1CC2(CCCN(c3ncc(Cl)cc3F)C2)CCC1=O` (configuration not stated): -4.82%; for `CC(=O)N[C@@H]1CN(Cc2cccs2)C[C@H]1c1ccc(C)o1`: 1.3%.
As for `Cc1nc(CN2CCCC(CCc3ccccc3C(F)(F)F)C2)no1` (configuration not stated), the cytotoxicity at 70.5 h was -8.94%.
To `CN(C)c1nc(NCc2cccnc2N)ncc1F` belongs 0.515%; to `CC(C)CN1CCn2nc(CNc3ncnc4[nH]ccc34)cc2C1`, 7.26%; to `Cc1ccccc1C(C(=O)NCCn1cccc1)N(C)C` (configuration not stated), -9.04%.
In the case of `CC(C)N1CCCCC1CCn1cnc2cc(C(F)(F)F)ccc2c1=O` (configuration not stated), the cytotoxicity at 70.5 h was -12.9%.
To `CCCN(Cc1ccc(OC)nc1)Cc1ccccc1OC` belongs 12.5%.
